In ChEMBL document CHEMBL1145121, “Docking studies on alphavbeta3 integrin ligands: pharmacophore refinement and implications for drug design” (J Med Chem, 2003):

Target: Integrin alpha-V/beta-3 (Homo sapiens, UniProt P05106+P06756)
Assay: Inhibition of binding to alphaV-beta3 integrin
Assay type: protein-complex assay

Sequence of Integrin alpha-V/beta-3 (P05106 27-788 limits assumed): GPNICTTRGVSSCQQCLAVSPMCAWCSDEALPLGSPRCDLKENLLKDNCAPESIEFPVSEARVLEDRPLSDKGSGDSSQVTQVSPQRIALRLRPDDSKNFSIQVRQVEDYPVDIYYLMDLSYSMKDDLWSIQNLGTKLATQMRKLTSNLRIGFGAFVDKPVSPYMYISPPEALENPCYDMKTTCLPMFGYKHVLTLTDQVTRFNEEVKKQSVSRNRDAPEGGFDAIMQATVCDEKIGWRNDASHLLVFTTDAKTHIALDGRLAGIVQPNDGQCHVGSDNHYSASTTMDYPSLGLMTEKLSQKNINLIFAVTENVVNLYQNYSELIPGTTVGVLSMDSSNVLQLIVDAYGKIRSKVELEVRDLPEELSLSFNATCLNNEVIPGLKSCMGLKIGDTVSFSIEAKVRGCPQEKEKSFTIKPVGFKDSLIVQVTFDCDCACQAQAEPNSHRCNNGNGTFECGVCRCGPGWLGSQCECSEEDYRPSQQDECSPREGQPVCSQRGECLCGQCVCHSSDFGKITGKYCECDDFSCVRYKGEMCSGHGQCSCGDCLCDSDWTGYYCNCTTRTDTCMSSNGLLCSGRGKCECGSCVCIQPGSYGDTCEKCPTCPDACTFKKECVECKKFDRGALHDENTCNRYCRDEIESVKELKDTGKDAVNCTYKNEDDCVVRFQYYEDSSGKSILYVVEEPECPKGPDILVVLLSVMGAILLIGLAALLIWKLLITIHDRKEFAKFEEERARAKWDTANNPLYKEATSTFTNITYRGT
Sequence of Integrin alpha-V/beta-3 (P06756 31-889 limits assumed): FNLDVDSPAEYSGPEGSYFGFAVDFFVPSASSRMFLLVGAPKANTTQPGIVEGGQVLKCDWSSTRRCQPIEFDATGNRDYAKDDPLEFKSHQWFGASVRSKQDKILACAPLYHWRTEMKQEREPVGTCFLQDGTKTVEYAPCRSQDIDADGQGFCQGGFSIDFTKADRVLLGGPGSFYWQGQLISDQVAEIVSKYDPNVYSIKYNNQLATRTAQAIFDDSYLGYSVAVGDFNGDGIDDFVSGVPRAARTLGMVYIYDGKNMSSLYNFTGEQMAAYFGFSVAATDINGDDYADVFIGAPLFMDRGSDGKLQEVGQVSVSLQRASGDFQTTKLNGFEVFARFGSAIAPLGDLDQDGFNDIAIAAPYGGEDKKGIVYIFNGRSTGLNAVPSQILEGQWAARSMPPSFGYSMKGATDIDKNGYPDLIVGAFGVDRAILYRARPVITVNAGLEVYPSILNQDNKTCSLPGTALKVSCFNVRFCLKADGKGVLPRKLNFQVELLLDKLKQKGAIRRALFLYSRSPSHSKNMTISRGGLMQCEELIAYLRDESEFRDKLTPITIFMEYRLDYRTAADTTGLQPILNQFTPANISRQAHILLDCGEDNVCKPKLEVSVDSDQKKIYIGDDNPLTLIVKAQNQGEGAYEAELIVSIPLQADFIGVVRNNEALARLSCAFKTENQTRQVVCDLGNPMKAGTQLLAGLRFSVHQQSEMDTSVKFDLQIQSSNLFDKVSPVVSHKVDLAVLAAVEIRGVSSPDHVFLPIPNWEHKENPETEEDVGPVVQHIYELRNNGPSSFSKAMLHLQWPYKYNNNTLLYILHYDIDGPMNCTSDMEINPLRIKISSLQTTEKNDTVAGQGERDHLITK
Sequence of Integrin alpha-V/beta-3 (P06756 891-1048 limits assumed): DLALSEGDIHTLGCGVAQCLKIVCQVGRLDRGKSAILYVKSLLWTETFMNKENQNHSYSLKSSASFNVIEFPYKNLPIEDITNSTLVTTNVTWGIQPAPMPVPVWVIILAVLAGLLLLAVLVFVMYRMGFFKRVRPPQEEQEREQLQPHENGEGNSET

Structure (SMILES)	IC50 [µM]
CC(C)C[C@H]1NC(=O)[C@H](CCCN=C(N)N)NC(=O)CNC(=O)[C@@H](CC(=O)O)NC(=O)[C@@H](Cc2ccccc2)NC1=O	0.04
NC(=O)[C@@H](CC(=O)O)NC(=O)NNC(=O)c1cccc(N=C(N)N)c1	7.2
N=C(N)Nc1cccc(C(=O)NNC(=O)N[C@@H](CC(=O)O)C(N)=O)c1	0.15
N=C(N)Nc1cccc(C(=O)NNC(=O)NC(CC(=O)O)c2ccccc2)c1 (stereo unspecified)	0.0026

Stronger by IC50, values ahead:

IC50 [µM]	Structure (SMILES)
0.0008	CC(C)C[C@H]1C(=O)N[C@@H](CCCNC(=N)N)C(=O)NCC(=O)N[C@@H](CC(=O)O)C(=O)N[C@@H]2CCN1C2=O
0.0006	CC(C)C[C@H]1C(=O)N[C@@H](CCCN=C(N)N)C(=O)NCC(=O)N[C@@H](CC(=O)O)C(=O)N[C@H](Cc2ccccc2)C(=O)N1C
